For test [1], the target named is RNA-editing ligase 1, mitochondrial (Trypanosoma brucei brucei, UniProt P86926). The test is described as follows: TbREL1 ligase inhibitors, dose response, biochemical, fluorescence, Trypanosoma brucei (AID 1117295). Type of test: functional.
Test [2] concerns the target T1, Dual specificity protein phosphatase 6 (Rattus norvegicus, UniProt Q64346).
T1 sequence (Q64346 whole entry): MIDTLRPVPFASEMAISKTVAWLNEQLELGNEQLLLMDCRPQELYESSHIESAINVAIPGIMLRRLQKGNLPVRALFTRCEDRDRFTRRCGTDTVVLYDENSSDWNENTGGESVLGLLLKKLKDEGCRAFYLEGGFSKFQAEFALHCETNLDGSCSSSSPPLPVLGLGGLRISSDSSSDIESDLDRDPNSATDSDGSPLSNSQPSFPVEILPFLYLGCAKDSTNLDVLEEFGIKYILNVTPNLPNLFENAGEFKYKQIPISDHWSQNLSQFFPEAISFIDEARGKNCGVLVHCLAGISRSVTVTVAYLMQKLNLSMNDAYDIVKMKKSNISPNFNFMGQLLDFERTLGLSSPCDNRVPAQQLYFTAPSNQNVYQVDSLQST
The test is described as follows: MKP-3 phosphatase inhibitors, primary screen, biochemical, rat enzyme, in vitro (AID 425).

The next test addresses Heat shock protein HSP90 (Homo sapiens, UniProt P07900+P08238). As to the kind of experiment: tumor Hsp90 inhibitor potency, dose response (AID 712). The format is functional.
For test [3], the target named is 5-hydroxytryptamine receptor 1A (Homo sapiens, UniProt P08908). Type of test: functional.
The target of test [4] is Sphingosine 1-phosphate receptor 2 (Homo sapiens, UniProt O95136). The test is described as follows: Dose Response Cell Based Assay for Agonists of the S1P2 Receptor. [Related pubchem assays: 729, 736, 843 ]. Type of test: functional.
For a further test, the target named is T2, Cytochrome P450 1A2 (Homo sapiens, UniProt P05177).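 Note: PubChem cytochrome P450 panel assay, CYP1A2 panel member.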
T2 sequence (P05177 whole entry): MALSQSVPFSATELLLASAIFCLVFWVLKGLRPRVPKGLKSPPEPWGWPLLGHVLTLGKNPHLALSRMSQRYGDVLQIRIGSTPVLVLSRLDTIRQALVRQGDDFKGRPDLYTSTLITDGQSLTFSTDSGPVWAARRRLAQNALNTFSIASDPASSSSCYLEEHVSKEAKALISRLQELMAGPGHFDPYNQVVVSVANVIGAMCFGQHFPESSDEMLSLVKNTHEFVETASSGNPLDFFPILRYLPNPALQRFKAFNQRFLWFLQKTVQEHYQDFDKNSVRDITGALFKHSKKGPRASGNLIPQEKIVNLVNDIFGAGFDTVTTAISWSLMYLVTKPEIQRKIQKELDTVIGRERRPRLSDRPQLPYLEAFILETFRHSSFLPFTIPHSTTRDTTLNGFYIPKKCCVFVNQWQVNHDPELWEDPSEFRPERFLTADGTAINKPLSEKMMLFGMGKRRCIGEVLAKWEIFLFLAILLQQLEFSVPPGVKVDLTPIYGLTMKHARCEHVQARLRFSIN

In a further test the target is Cytochrome P450 2C19 (Homo sapiens, UniProt P33261). The test is described as follows: Cytochrome panel assay with activity outcomes. Panel member name: p450-cyp2c19 Compounds with AC50 equal or less than 10 uM are considered active. The format is functional. The settings on record: read-out: AC50.
The nature of test [5]: Dose-response inhibition of insulin secretion in a rat insulinoma line at 5 mM glucose (AID 1117331). Type of test: functional, cell-based. Particulars: INS-1E.
For the next test, the system named is INS1. The test is described as follows: beta cell apoptosis inhibitors, cytokine rescue, dose response, luminescence, retest (AID 449756).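 Note: cell death triggered by IL-1 beta plus TNF-alpha plus IFN-gamma mixture; protective hits raise ATP signal compared with cytokine alone wells.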 The format is functional, cell-based. The settings on record: Rattus norvegicus.
Test [6] in a line: HepG2 cell cytotoxicity, dose response, cytotoxicity control for Shn3 inhibitor project, CellTiter-Glo, cherry-picked (AID 624134). The format is functional, cell-based.
The next test addresses Galanin receptor type 2 (Homo sapiens, UniProt O43603). As to the kind of experiment: Dose Response cell-based high-throughput screening assay to identify antagonists of galanin receptor 2 (GALR2). [Related pubchem assays: 828, 866 ]. The format is functional.
Test [7] in a line: control 3'UTR Renilla luciferase suppression, dose response, counter-screen for Shn3 inhibitor project, cell-based, Clone20-Shn3RL, cherry-picked (AID 624133). Type of test: functional. A general note: Counterscreens check selectivity or assay interference.
A short description of test [8]: Shn3 3'UTR reporter inhibitors, dose response, cell-based, Clone20 osteoblasts, firefly luciferase, cherry-picked (AID 624132).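 Note: firefly luciferase luminescence from reporter carrying the Shn3 3'UTR in osteoblasts.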 The format is functional.
The next test concerns the target 14-3-3 protein gamma (Homo sapiens, UniProt P61981). As to the kind of experiment: modulators of 14-3-3 gamma client binding – dose response (AID 711). The format is functional.
Test [9] addresses T3, Aryl hydrocarbon receptor (Homo sapiens, UniProt P35869).
T3 sequence (P35869 whole entry): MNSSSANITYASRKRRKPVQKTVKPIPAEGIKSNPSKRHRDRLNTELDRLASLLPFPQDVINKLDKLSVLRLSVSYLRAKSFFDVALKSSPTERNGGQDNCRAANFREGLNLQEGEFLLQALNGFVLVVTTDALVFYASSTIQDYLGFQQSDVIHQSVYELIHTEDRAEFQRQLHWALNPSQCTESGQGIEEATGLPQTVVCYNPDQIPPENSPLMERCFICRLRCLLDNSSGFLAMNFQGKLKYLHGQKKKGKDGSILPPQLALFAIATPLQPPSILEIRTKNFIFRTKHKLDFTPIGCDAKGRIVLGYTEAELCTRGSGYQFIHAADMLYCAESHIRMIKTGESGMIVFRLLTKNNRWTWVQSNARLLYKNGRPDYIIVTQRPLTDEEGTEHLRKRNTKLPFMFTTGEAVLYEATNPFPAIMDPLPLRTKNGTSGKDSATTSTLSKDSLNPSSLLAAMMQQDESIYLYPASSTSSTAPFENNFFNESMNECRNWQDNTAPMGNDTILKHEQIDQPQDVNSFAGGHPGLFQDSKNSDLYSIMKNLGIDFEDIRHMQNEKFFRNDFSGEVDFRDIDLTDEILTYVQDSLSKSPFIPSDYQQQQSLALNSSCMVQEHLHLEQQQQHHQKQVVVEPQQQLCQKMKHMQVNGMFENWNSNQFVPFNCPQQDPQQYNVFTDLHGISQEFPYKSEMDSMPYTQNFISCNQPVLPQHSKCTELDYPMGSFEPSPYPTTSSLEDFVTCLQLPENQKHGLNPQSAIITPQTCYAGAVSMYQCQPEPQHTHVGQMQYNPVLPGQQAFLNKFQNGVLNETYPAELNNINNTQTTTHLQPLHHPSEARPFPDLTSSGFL
The test is described as follows: Luminescence-based cell-based high throughput dose response assay for activators of the Aryl Hydrocarbon Receptor (AHR). [Related pubchem assays: 2796 (Primary screen (AHR activators in singlicate)), 2845 (Confirmation screen (AHR activators in triplicate)), 434939 (Counterscreen (PXR activators in triplicate)), 2804 (Summary (AHR activators))]. The format is ADME.

For test [10], the target named is Mitogen-activated protein kinase 10 (Homo sapiens, UniProt P53779). As to the kind of experiment: Dose response biochemical screening assay for inhibitors of c-Jun N-Terminal Kinase 3 (JNK3). [Related pubchem assays: 746 ].

Molecules are shown by their SMILES. Structures can show the parent of a compound that is named as a salt. Activity calls are given as the source filed them.

Chain of 5-hydroxytryptamine receptor 1A (P08908 whole entry): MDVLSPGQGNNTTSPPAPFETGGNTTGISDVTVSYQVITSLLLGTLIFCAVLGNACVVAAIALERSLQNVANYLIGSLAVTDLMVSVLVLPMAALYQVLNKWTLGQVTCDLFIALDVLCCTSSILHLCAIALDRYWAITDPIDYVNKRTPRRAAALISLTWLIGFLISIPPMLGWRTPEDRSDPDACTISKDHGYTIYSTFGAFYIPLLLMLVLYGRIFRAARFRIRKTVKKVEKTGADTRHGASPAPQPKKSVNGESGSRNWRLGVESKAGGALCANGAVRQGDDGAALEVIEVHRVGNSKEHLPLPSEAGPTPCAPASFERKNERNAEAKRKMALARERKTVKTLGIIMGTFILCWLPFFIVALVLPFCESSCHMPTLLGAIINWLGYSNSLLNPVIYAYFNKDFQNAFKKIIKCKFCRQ
Chain of Sphingosine 1-phosphate receptor 2 (O95136 whole entry): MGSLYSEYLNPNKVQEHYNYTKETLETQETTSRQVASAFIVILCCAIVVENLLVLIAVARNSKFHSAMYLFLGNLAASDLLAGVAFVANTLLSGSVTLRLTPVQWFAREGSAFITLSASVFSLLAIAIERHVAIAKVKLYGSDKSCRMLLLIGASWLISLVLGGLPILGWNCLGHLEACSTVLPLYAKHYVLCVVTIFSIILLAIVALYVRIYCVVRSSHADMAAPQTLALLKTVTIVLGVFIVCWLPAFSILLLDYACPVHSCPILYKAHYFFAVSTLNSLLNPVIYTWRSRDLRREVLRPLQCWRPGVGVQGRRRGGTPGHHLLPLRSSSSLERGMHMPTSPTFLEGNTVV
Chain of Galanin receptor type 2 (O43603 whole entry): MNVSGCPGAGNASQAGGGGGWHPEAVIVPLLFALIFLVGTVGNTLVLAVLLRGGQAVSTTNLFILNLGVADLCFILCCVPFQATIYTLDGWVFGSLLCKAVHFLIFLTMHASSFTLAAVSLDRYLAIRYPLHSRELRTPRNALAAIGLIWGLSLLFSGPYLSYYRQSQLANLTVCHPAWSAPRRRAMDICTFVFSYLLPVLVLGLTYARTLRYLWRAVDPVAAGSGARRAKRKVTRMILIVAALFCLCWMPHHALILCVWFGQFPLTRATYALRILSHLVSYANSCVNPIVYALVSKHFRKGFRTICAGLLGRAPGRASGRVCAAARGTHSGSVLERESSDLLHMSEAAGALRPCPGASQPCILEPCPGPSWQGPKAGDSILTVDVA
Chain of 14-3-3 protein gamma (P61981 whole entry): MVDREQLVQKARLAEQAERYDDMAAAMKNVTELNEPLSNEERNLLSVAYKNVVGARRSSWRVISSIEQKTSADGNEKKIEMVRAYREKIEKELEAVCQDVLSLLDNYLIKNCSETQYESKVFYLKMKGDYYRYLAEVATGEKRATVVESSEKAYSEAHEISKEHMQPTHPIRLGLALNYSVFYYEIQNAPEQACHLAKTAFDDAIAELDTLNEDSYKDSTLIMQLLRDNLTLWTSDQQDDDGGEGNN
Chain of Cytochrome P450 2C19 (P33261 whole entry): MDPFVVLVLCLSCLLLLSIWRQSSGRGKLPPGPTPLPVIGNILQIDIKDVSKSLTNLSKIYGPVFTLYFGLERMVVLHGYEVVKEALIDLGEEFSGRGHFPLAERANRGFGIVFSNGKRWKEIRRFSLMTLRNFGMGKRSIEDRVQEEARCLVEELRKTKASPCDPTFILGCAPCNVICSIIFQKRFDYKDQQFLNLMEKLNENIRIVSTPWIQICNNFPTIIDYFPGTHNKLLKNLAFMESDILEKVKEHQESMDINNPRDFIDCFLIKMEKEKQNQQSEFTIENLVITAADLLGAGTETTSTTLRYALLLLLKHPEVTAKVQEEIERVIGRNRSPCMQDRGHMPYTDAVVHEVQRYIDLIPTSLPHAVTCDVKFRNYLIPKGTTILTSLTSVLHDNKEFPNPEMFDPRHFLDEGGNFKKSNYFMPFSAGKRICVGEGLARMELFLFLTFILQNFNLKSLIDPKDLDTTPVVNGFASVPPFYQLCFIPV
Chain of Mitogen-activated protein kinase 10 (P53779 whole entry): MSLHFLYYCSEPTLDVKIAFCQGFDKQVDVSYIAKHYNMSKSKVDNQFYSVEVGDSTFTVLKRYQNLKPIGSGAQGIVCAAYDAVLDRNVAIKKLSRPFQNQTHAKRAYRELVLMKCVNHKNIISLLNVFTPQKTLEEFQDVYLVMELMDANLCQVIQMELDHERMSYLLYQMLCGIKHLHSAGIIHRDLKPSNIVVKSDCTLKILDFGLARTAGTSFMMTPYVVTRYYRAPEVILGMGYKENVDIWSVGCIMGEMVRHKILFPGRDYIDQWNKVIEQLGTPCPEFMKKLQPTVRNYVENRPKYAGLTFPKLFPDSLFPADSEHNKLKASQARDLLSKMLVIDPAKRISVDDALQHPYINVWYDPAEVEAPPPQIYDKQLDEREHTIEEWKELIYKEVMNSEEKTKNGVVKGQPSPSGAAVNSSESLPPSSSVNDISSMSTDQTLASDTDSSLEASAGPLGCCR
Chain of RNA-editing ligase 1, mitochondrial (P86926 whole entry): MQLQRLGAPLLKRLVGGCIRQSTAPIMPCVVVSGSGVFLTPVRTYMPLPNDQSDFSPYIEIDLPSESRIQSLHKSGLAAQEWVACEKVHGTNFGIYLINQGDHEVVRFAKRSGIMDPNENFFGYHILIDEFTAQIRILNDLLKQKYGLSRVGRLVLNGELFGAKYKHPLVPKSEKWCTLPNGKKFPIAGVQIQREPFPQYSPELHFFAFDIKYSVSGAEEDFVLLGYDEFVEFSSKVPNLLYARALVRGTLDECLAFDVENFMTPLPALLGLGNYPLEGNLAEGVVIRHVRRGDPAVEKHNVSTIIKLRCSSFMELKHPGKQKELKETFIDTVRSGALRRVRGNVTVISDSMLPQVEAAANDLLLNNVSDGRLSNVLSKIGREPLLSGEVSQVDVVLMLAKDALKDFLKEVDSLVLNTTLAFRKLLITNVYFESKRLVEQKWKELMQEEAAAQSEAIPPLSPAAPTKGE

In general, IC50 refers to the concentration that inhibits the measured activity by half. On to `COC(=O)C1=C(C)N(Cc2ccccc2C(F)(F)F)C(NCc2ccc3c(c2)OCO3)=NC1c1cccc(F)c1` (stereo unspecified), for which, in test [1], the IC50 is > 96.6 µM (inactive).
As for `CCn1nc(-c2cccs2)nc2c(=O)n(C)c(=O)nc1-2`, the IC50 was 1.98 µM (active) in [2] and 5 µM on Heat shock protein HSP90.
As usually defined, the EC50 is the midpoint of the concentration-response curve. For the compound `O=S(=O)(c1cccc(Cl)c1)N1CCCC1`, the EC50 in [3] is listed as > 50 µM (not active).
By AC50 is commonly meant the midpoint of the concentration-response curve, whichever way the signal moves. Take `O=c1c(-c2nc3ccccc3s2)cccn1Cc1ccc(Cl)cc1`: the EC50 in test [4] is 2.89 µM (active). The AC50 on Cytochrome P450 1A2 is 1.41 µM (inconclusive); on Cytochrome P450 2C19, 1.12 µM (inconclusive).
For the compound `CCN(CC)C(C)CN1c2ccccc2Sc2ccccc21` (stereo unspecified) [ETHOPROPAZINE HYDROCHLORIDE], the IC50 in test [5] is > 33.3 µM (inactive).
Regarding `Cc1cccc(C(=O)Nc2ccc(C(=O)/C=C/c3cccnc3)cc2)c1`, the AC50 was 5.53 µM (active) in the test with INS1, 30.9 µM (active) in test [6], 10.7 µM (active) in [7] and 6.23 µM (active) in test [8]. Also, at Galanin receptor type 2, the IC50 is on record as 21.4 µM (not active).
For `Cc1nc2nc(Cc3ccccc3)nn2c(O)c1Cc1ccccc1`, the IC50 on 14-3-3 protein gamma is recorded as > 50 µM (not active).
Turning to `NC(=O)c1oc2ccccc2c1NC(=O)c1ccc(F)cc1`, the EC50 in test [9] is 4.12 µM (active). The IC50 in [10] is recorded as 23.9 µM (not active).

Source of the values: ChEMBL document CHEMBL1201862, “PubChem BioAssay data set” (2004).
